Broadly, the inhibition is the share of the control response that was lost under treatment. What is called % inhibition is how much of the control response was suppressed.

Counter-ions that a name gives are not always drawn.

The first assay has as its target T1, Rat brain protein farnesyltransferase (Rattus norvegicus, UniProt Q02293+Q04631).
T1 construct: The enzyme is purified according to Reiss, Y., et al., Cell, 62: 81-88 (1990), utilizing steps one through three; from tissue; host or cells: rat brain
Briefly: In vitro inhibition of protein farnesyltransferase, Amersham scintillation proximity assay with biotin-K Ras B fragment. The assay is classed as biochemical. The conditions noted are these: Inhibition of farnesyltransferase; compound at 0.01 μM (Table 6, values marked **); read-out: % inhibition at 0.01 μM. On the technique in general: In a scintillation proximity assay essentially only radioactivity close to the scintillant gives light.
Take `CSCC[C@H](NC(=O)c1ccc(C=Cc2cnccc2OCc2cc(F)cc(F)c2)cc1-c1ccccc1C)C(=O)O` [Example 1363, N-[4-(2-(4-(3,5-Difluorobenzyl)oxypyridin-3-yl)ethenyl)-2-(2-methylphenyl)benzoyl]methionine Sodium Salt]: the inhibition at 0.01 µM worked out at 88%. Still for that read-out and setting: the same measure for `CCCOc1ccncc1C=Cc1ccc(C(=O)N[C@@H](CCSC)C(=O)O)c(-c2ccccc2C)c1` [Example 1362, N-[4-(2-(4-Propyloxypyridin-3-yl)ethenyl)-2-(2-methylphenyl)benzoyl]methionine Sodium Salt]: 83%.

The same assay, now with this note: Inhibition of farnesyltransferase; compound at 1 × 10^−6 M (Table 2).
In the case of `COc1cccc(-c2cc(COc3cccnc3)ccc2C(=O)N[C@@H](CCSC)C(=O)O)c1` [Example 208], the “% inhibition at 1 × 10^−6 M” value amounted to 98%. The same measure, in the same setting: the same measure for `CSCC[C@H](NC(=O)c1ccc(COc2cccnc2)cc1-c1ccc(C)cc1)C(=O)O` [Example 206]: 67%.

The same assay, now with this note: Inhibition of farnesyltransferase; compound at 1 × 10^−6 M (Table 2); read-out: % inhibition at 1 × 10^−6 M.
For the molecule `CSCC[C@H](NC(=O)c1ccc(CNCc2c[nH]cn2)cc1-c1ccccc1)C(=O)O` [Example 225, [4-(1H-Imidazol-4-ylmethylaminomethyl)-2-phenylbenzoyl]methionine], the inhibition at 1 µM is 93%. Same read-out and setting: the same measure for `CSCC[C@H](NC(=O)c1ccc(COc2cccnc2)cc1-c1ccccc1C)C(=O)NS(=O)(=O)c1ccccc1` [Example 253, [4-(3-Pyridyloxymethyl)-2-(2-methylphenyl)benzoyl]methionine Phenylsulfonimide]: 99%; for `CSCC[C@H](NC(=O)c1cc(CC(C)C)c(COc2cccnc2)cc1-c1ccccc1C)C(=O)O` [Example 320, [4-(3-Pyridyloxymethyl)-2-(2-methylphenyl)-5-isobutylbenzoyl]methionine]: 93%; for `CSCC[C@H](NC(=O)c1ccc(C#Cc2cccnc2)cc1-c1ccccc1)C(=O)O` [Example 218, {4-[(Pyrid-3-yl)ethynyl]-2-phenylbenzoyl}methionine Hydrochloride]: 89%. On to `CSCC[C@H](NC(=O)c1ccc(C(O)c2ccncc2)cc1-c1ccccc1)C(=O)O` (stereo partly shown) [Example 298, [4-(4-Pyridylhydroxymethyl)-2-phenylbenzoyl]methionine Sodium Salt], for which the inhibition at 1 µM stood at 43%. Same read-out and setting: the same measure for `CSCC[C@H](NC(=O)c1ccc(Sc2cccnc2)cc1-c1ccccc1)C(=O)O` [Example 241]: 41%; for `COc1ccc(-c2cc(COc3cccnc3)ccc2C(=O)N[C@@H](CCSC)C(=O)O)cc1` [Example 209, [4-(3-Pyridyloxymethyl)-2-(4-methoxyphenyl)benzoyl]methionine]: 74%.

For `CSCC[C@H](NC(=O)c1ccc(COc2cccnc2)cc1-c1ccccc1)C(=O)NS(C)(=O)=O` [Example 250, [4-(3-Pyridyloxymethyl)-2-phenylbenzoyl]methionine Methylsulfonimide], the inhibition at 1 µM was 96%. The same measure, in the same setting: the same measure for `CSCC[C@H](NC(=O)c1ccc(CN(Cc2ccccc2)c2cccnc2)cc1-c1ccccc1C)C(=O)O` [Example 407, [4-(N-Benzyl-N-3-pyridylaminomethyl)-2-(2-methylphenyl)benzoyl]methionine]: 98%; for `CSCC[C@H](NC(=O)c1ccc(CSc2cccnc2)cc1-c1ccccc1)C(=O)O` [Example 237, [4-(3-Pyridylthiomethyl)-2-phenylbenzoyl]methionine]: 98%; for `COC(=O)[C@H](CCSC)NC(=O)c1ccc(NCc2cccnc2)cc1-c1ccccc1C` [Example 308, [4-(3-Pyridylmethylamino)-2-(2-methylphenyl)benzoyl]methionine Methyl Ester]: 62%. On the same count and under the same terms, the same measure for `CSCC[C@H](NC(=O)c1ccc(CNc2ccncc2)cc1-c1ccccc1)C(=O)O` [Example 161, [4-(4-Pyridylaminomethyl)-2-phenylbenzoyl]methionine]: 54%; for `NC(=O)CC[C@H](NC(=O)c1ccc(COc2cccnc2)cc1-c1ccccc1)C(=O)O` [Example 316, (S)-2-N-[4-(3-Pyridyloxymethyl)-2-phenylbenzoyl]amino-4-(aminocarbonyl)butanoic Acid]: 63%. On the same count and under the same terms, the same measure for `CSCC[C@H](NC(=O)c1ccc(NCc2c[nH]cn2)cc1-c1ccccc1)C(=O)O` [Example 167, [4-(1H-Imidazol-4-ylmethyl)amino-2-phenylbenzoyl]methionine Hydrochloride]: 98%; for `CCCC[C@H](NC(=O)c1ccc(COc2cccnc2)cc1-c1ccccc1)C(=O)O` [Example 244, N-[4-(3-Pyridyloxymethyl)-2-phenylbenzoyl]norleucine]: 21%.

The assay is the same for the next values; noted with them: Inhibition of farnesyltransferase; compound at 1 × 10^−7 M (Table 3); read-out: % inhibition at 1 × 10^−7 M.
Take `CSCC[C@H](NC(=O)c1ccc(/C=C/c2cnccc2C2(O)CCCCC2)cc1-c1ccccc1C)C(=O)O` [Example 482, N-[4-(2-(4-Cyclohexan-1-ol-1-yl)-pyrid-3-ylethen-1-yl)-2-(2-methylphenyl)benzoyl]methionine Lithium Salt]: the inhibition at 0.1 µM was 96%. Still for that read-out and setting: the same measure for `CSCC[C@H](NC(=O)c1ccc(/C=C/c2cnccc2C(=O)c2ccccc2)cc1-c1ccccc1C)C(=O)O` [Example 483, N-[4-(2-(4-Benzoyl)pyrid-3-ylethen-1-yl)-2-(2-methylphenyl)benzoyl]methionine Lithium Salt]: 95%. For `CSCC[C@@H](C(=O)O)N(C)C(=O)c1ccc(CN(Cc2ccccc2)c2cccnc2)cc1-c1ccccc1C` [Example 602, N-[4-(N-Benzyl-N-pyrid-3-ylaminomethyl)-2-(2-methylphenyl)benzoyl]-N-methylmethionine], the inhibition at 0.1 µM amounted to 97%. Still for that read-out and setting: the same measure for `CSCC[C@H](NC(=O)c1ccc(C#Cc2cccnc2)cc1-c1ccccc1C)C(=O)O` [Example 865, N-[4-(2-Pyrid-3-ylethyn-1-yl)-2-(2-methylphenyl)benzoyl]methionine]: 95%.

Still in this assay, the particulars now being: Inhibition of farnesyltransferase; compound at 1 × 10^−8 M (Table 4); read-out: % inhibition at 1 × 10^−8 M.
Take `CSCC[C@H](NC(=O)c1ccc(COc2cccnc2)cc1-c1ccc(F)cc1Cl)C(=O)O` [Example 871, N-[4-(Pyrid-3-yloxymethyl)-2-(2-chloro-4-fluorophenyl)benzoyl]methionine]: the inhibition at 0.01 µM amounted to 94%. In the case of `CSCC[C@H](NC(=O)c1ccc(COc2cccnc2)cc1-c1ccccc1)C(=O)NS(=O)(=O)N1CCN(C)CC1` [Example 401, [4-(3-Pyridyloxymethyl)-2-phenylbenzoyl]methionine 4-Methylpiperazinesulfonimide], the inhibition at 0.01 µM was found to be 66%. Consider `CSCC[C@H](NC(=O)c1ccc(CN(Cc2ccccc2)c2cccnc2)cc1-c1ccc(F)cc1Cl)C(=O)O` [Example 873, N-(4-(N-Benzyl-N-pyrid-3-ylaminomethyl)-2-(2-chloro-4-fluorophynel)beonzoyl)methionine], for which the inhibition at 0.01 µM turned out to be 97%. Still for that read-out and setting: the same measure for `CSCC[C@H](NC(=O)c1ccc(CN(Cc2ccccc2)c2cncc(F)c2)cc1-c1ccccc1C)C(=O)O` [Example 410, [4-(N-Benzyl-N-3-(5-fluorolpyridyl)aminomethyl)-2-(2-methylphenyl)benzoyl]methionine]: 94%.

Still in this assay, the particulars now being: read-out: % inhibition at 0.01 μM.
`CSCC[C@H](NC(=O)c1ccc(CN(Cc2cc(F)cc(F)c2)c2cccnc2)cc1-c1ccccc1C)C(=O)O` [Example 1360, N-[4-N-3,5-Difluorobenzyl-N-(3-pyridyl)aminomethyl-2-(2-methylphenyl)benzoyl]methionine Lithium Salt]: the inhibition at 0.01 µM amounted to 98%.

The same assay, now with this note: read-out: % inhibition at 1 × 10^−6 M.
Consider `CSCC[C@H](NC(=O)c1ccc(COc2cccnc2)cc1-c1ccccc1C(F)(F)F)C(=O)O` [Example 304, [4-(3-Pyridyloxymethyl)-2-(2-trifluoromethylphenyl)benzoyl]methionine], for which the inhibition at 1 µM was 99%.

The same assay, now with this note: read-out: % inhibition at 1 × 10^−7 M.
On to `CSCC[C@H](NC(=O)c1ccc(/C=C/c2ccc(Oc3ccccc3Cl)nc2)cc1-c1ccccc1C)C(=O)O` [Example 802, Lithium Salt], for which the inhibition at 0.1 µM came to 88%.

The next assay concerns geranylgeranyltransferase I. Description: Inhibition of geranylgeranyltransferase I (glass fiber filter binding assay, H-Ras-CVLL, 3H-GGPP). It is filed as biochemical, bovine. The note with it: compound at 1 × 10^−6 M (Table 5). From the text: The ability of the compounds of the invention to inhibit protein farnesyltransferase or protein geranylgeranyltransferase can be measured according to the method of Moores, et al., J. Biol. Chem. 266: 14603 (1991) or the method of Vogt, et al., J. Biol. Chem. 270:660-664 (1995). In addition, procedures for determination of the inhibition of farnesylation of the oncogene protein Ras are described by Goldstein, et al., J. Biol. Chem., 266:15575-15578 (1991) and by Singh in U.S. Pat. No. 5,245,061.
Additional methods for the measurement of in vitro inhibition of protein prenylation (i.e., inhibition of farnesyltransferase or geranylgeranyltransferase) are described below.
Assays are performed using the glass fiber filter binding assay procedure with either rabbit reticulocyte lysate or Frase or GGTase I fractions isolated from bovine brains using a combination of hydrophobic and DEAE column chromatography procedures. Protein substrates are purchased from Panvera Corporation (H-ras for FTase, H-ras-CVLL for GGTase I). Tritium labeled prenyl lipid substrates (FPP or GGPP) are obtained from Amersham Life Science.
^3H-geranylgeranyldiphosphate (final concentration 0.5 μM), H-Ras-CVLL (final concentration 5.0 μM) and the test compound (various final concentrations from a stock solution in 1:1 DMSO/water; final concentration DMSO <2%) were mixed in buffer (50 mM Tris-HCl (pH 7.2), 30 mM MgCl2, 20 mM KCl, 10 μM ZnCl2, 5 mM DTT, 0.01% Triton X-100) to give a final volume of 50 μL. The mixture was brought to 37° C., treated with enzyme, and incubated for 30 minutes. 1 mL of 1 M HCl/ethanol was added to stop the reaction, and the mixture was allowed to stand for 15 minutes at room temperature then diluted with 2 mL of ethanol. The reaction mixture was filtered through a 2.5 cm glass microfiber filter from Whatman and washed with four 2 mL portions of ethanol. The glass filter was transferred to a scintillation vial, and 5 mL scintillation fluid was added. The radioisotope retained on the glass fiber filter was counted to reflect the activity of the enzymes. The IC50 value was calculated by measuring the activity of the enzyme over a suitable range of inhibitor concentrations.
As to `CC(C)C[C@H](NC(=O)c1ccc(NCc2c[nH]cn2)cc1-c1ccccc1)C(=O)O` [Example 967, N-[4-(Imidazol-4-ylmethylamino)-2-phenylbenzoyl]leucine], the “Activity: % inhibition at 1 × 10^−6 M” value is recorded as >50% inhibition at 1 × 10^−6 M.

(Values after patent US6693123B2 (University of Pittsburgh, priority 1995, dated 2004).)
